According to ChEMBL document CHEMBL1142982, “Discovery of N-(4-(3-amino-1H-indazol-4-yl)phenyl)-N'-(2-fluoro-5-methylphenyl)urea (ABT-869), a 3-aminoindazole-based orally active multitargeted receptor tyrosine kinase inhibitor” (J Med Chem, 2007):
≈ marks a conversion by molar mass, not a printed value. Each block holds one molecule with its values, some of them ahead of it.

Assays:
[1] = Oral bioavailability in CD1 mouse; type: ADME, organism-based; conditions: in vivo
[2] = AUC in CD1 mouse at 10 mg/kg, po; type: ADME, organism-based; parameters: dose 10 mg/kg, route oral; conditions: plasma
[3] = Oral bioavailability n Sprague-Dawley rat at 5 mg/kg, po; type: ADME, organism-based; conditions: in vivo
[4] = Clearance in cynomolgus monkey at […], iv; type: ADME, organism-based, Macaca fascicularis; parameters: dose 2.5 mg/kg, route intravenous; conditions: in vivo
[5] = Half life in cynomolgus monkey at […], iv; type: ADME, organism-based, Macaca fascicularis; parameters: dose 2.5 mg/kg, route intravenous; conditions: in vivo
[6] = Volume of distribution in cynomolgus monkey at […], iv; type: ADME, organism-based, Macaca fascicularis; parameters: dose 2.5 mg/kg, route intravenous; conditions: in vivo, read-out: Vdss
[7] = AUC in Sprague-Dawley rat at 5 mg/kg, po; type: ADME, organism-based; parameters: dose 5 mg/kg, route oral; conditions: plasma
[8] = Half life in Sprague-Dawley rat at 5 mg/kg, iv; type: ADME, organism-based; parameters: dose 5 mg/kg, route intravenous; conditions: in vivo
[9] = Lipophilicity, log D at pH 7.4; type: physicochemical; conditions: buffer
[10] = Volume of distribution in Beagle dog at […]; type: ADME, organism-based, Canis lupus familiaris; parameters: dose 2.5 mg/kg; conditions: in vivo, read-out: Vdss
[11] = Half life in Beagle dog at […], iv; type: ADME, organism-based, Canis lupus familiaris; parameters: dose 2.5 mg/kg, route intravenous; conditions: in vivo
[12] = Stability in human hepatocyte assessed as metabolic turnover after 6 hrs; type: ADME, cell-based; conditions: hepatocytes, read-out: Stability
[13] = Clearance in Sprague-Dawley rat at 5 mg/kg, iv; conditions: in vivo
[14] = Stability in mouse hepatocyte assessed as metabolic turnover after 6 hrs; type: ADME, cell-based; conditions: hepatocytes
[15] = Stability in monkey hepatocyte assessed as metabolic turnover after 6 hrs; type: ADME, cell-based, Macaca mulatta; conditions: rhesus monkey, hepatocytes
[16] = Aqueous solubility at pH 7 at room temperature; type: physicochemical; conditions: buffer
[17] = Volume of distribution in Sprague-Dawley rat at 5 mg/kg, iv; type: ADME, organism-based; parameters: dose 5 mg/kg, route intravenous; conditions: in vivo, read-out: Vdss
[18] = Oral bioavailability in cynomolgus monkey at […], po; type: ADME, organism-based, Macaca fascicularis; conditions: in vivo
[19] = Stability in dog hepatocyte assessed as metabolic turnover after 6 hrs; type: ADME, cell-based, Canis lupus familiaris; conditions: hepatocytes
[20] = Oral bioavailability in Beagle dog at […], po; type: ADME, organism-based, Canis lupus familiaris; conditions: in vivo
[21] = AUC in cynomolgus monkey at […], po; type: ADME, organism-based, Macaca fascicularis; parameters: dose 2.5 mg/kg, route oral; conditions: plasma
[22] = AUC in Beagle dog at […], po; type: ADME, organism-based, Canis lupus familiaris; parameters: dose 2.5 mg/kg, route oral; conditions: plasma
[23] = Clearance in Beagle dog at […], iv; type: ADME, organism-based, Canis lupus familiaris; parameters: dose 2.5 mg/kg, route intravenous; conditions: in vivo

bioavailability [1]: 38%
AUC [2]: 6.5 µM·h
SMILES: Cc1cccc(NC(=O)Nc2ccc(-c3cccc4[nH]nc(N)c34)cc2)c1

bioavailability [1]: 20%
AUC [2]: 1 µM·h
SMILES: Cc1cccc(NC(=O)Nc2ccc(-c3ccc(OCCN4CCOCC4)c4[nH]nc(N)c34)cc2)c1

bioavailability [1]: 50%
AUC [2]: 15 µM·h
SMILES: Nc1n[nH]c2cccc(-c3ccc(NC(=O)Nc4cccc(Cl)c4)cc3)c12

bioavailability [1]: 89%
AUC [2]: 19.8 µM·h
SMILES: Cc1cccc(NC(=O)Nc2ccc(-c3cccc4c3c(N)nn4C)cc2)c1

bioavailability [3]: 27%
clearance [4]: 8.2 mL/min/kg
half-life [5]: 3.1 h
Vd [6]: 2.2 L/kg
AUC [7]: 6800 ng·h/mL
half-life [8]: 3.6 h
logD [9]: 4.2
Vd [10]: 1.2 L/kg
half-life [11]: 2 h
metabolised at 6 h [12]: 91%
clearance [13]: 3.3 mL/min/kg
parent remaining at 6 h [14]: 91%
parent remaining at 6 h [15]: 91%
bioavailability [1]: 100%
Solubility [16]: 0.027 µg/mL (≈ 0.0719 µM)
Vd [17]: 1.1 L/kg
bioavailability [18]: 10.6%
parent remaining at 6 h [19]: 91%
bioavailability [20]: 47%
AUC [21]: 600 ng·h/mL
AUC [22]: 1500 ng·h/mL
AUC [2]: 24.5 µM·h
clearance [23]: 7.2 mL/min/kg
SMILES: Cc1ccc(F)c(NC(=O)Nc2ccc(-c3cccc4[nH]nc(N)c34)cc2)c1 [LINIFANIB]

bioavailability [1]: 66%
AUC [2]: 10.9 µM·h
SMILES: Cc1cc(NC(=O)Nc2ccc(-c3cccc4[nH]nc(N)c34)cc2)ccc1F
